Data set [1] in a line: Dissolution profile. Type of data set: physicochemical. The following applies: vs. itraconazole free base (FIG. 28). From the text: In another aspect of the present invention, the dissolution profile of the API is modulated whereby the aqueous dissolution rate or the dissolution rate in simulated gastric fluid or in simulated intestinal fluid, or in a solvent or plurality of solvents is increased. Dissolution rate is the rate at which API solids dissolve in a dissolution medium. For APIs whose absorption rates are faster than the dissolution rates (e.g., steroids), the rate-limiting step in the absorption process is often the dissolution rate. Because of a limited residence time at the absorption site, APIs that are not dissolved before they are removed from intestinal absorption site are considered useless. Therefore, the rate of dissolution has a major impact on the performance of APIs that are poorly soluble. Because of this factor, the dissolution rate of APIs in solid dosage forms is an important, routine, quality control parameter used in the API manufacturing process. […] For rapid API absorption, Cs−C is approximately equal to Cs The dissolution rate of APIs may be measured by conventional means known in the art. […] Conditions under which the dissolution rate is measured is the same as discussed above The increase in dissolution may be further specified by the time the composition remains supersaturated before reaching equilibrium solubility.

A word on the melting point: it is the temperature of the solid-liquid transition. The molecule `CCOc1ccc(NC(N)=O)cc1` [4-ethoxyphenyl urea] came in with a melting point of 173 to 174 °C.

As for “itraconazole and malic acid [itraconazole:malic acid]”, the dissolution profile entry in data set [1] is given as “modulated dissolution profile”.

Source of the values: patent US7927613B2, “Pharmaceutical co-crystal compositions” (University of South Florida, priority 2002, dated 2011).
